We go through 16 molecules from US8030354B2, “Substituted biphenyl GPR40 modulators” (Amgen Inc., priority 2007, dated 2011).

Assay [1] has as its target T1, GPR40 (Homo sapiens, UniProt O14842). The experiment in a line: Inositol phosphate accumulation assay (A9_GPR40 cells). Format: cell-based. On the set-up: expressed in transfected cells; host or cells: CHO cells stably transfected with GPR40 and aequorin. Conditions: inositol phosphate assay, A9_GPR40 cells, 1 hour; read-out: IP3 EC50. The method, boiled down: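 [^3H] inositol phosphate accumulation was measured by SPA after 1 h compound exposure at 37° C in HBSS/10 mM LiCl containing HSA, ending with a 20 mM formic acid quench. The GPR40-transfected A9 cells had first been labelled overnight (16 h) with 1 μCi/mL ^3H-inositol.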

Assay [2] addresses T1, GPR40. The assay is described as follows: Cell-based aequorin assay (CHO cells stably expressing GPR40 and aequorin). On the set-up: expressed in transfected cells; host or cells: CHO cells stably transfected with GPR40 and aequorin. Conditions: activation of human GPR40, CHO cells, 0.01% HSA. A digest of the protocol: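 CHO cells stably co-expressing GPR40 and aequorin, loaded with coelenterazine (1 ug/mL, 2 h, room temperature) in H/HBSS with 20 mM Hepes and 0.01% fatty acid-free HSA. Serially diluted compounds added; luminescence recorded over 20 s. EC50 from dose-response of maximum relative light units.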

A value given as a limit tells only on which side of the number the result lay.

T1 sequence (O14842 whole entry): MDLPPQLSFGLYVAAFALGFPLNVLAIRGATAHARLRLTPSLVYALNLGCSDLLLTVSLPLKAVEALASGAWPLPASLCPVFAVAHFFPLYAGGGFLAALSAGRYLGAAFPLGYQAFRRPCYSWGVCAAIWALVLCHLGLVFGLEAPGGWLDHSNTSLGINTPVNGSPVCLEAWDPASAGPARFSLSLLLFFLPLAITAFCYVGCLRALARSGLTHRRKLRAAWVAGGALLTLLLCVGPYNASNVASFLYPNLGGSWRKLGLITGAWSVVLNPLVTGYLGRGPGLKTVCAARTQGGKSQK

`CCC(CC(=O)O)c1cc(F)cc(OCc2ccc(-c3cc(OC)ccc3F)c(C3=CCCC3(C)C)c2)c1F` (single isomer, unassigned) [Example 90.1, (3R)-3-(3-(((2-(5,5-Dimethyl-1-cyclopenten-1-yl)-2′-fluoro-5′-(methyloxy)-1,1′-biphenyl-4-yl)methyl)oxy)-2,5-difluorophenyl)pentanoic acid or (3S)-3-(3-(((2-(5,5-dimethyl-1-cyclopenten-1-yl)-2′-fluoro-5′-(methyloxy)-1,1′-biphenyl-4-yl)methyl)oxy)-2,5-difluorophenyl)pentanoic acid]: the figures for the EC50 in assay [1] and in assay [2] were 10 to 100 nM and 100 to 1000 nM, respectively.
The like results for `COc1cccc(-c2ccc(COc3cccc(CCC(=O)O)c3)cc2OC(F)(F)F)c1` [Example 37, 3-[3-(3′-Methoxy-2-trifluoromethoxy-biphenyl-4-ylmethoxy)-phenyl]-propionic acid] were, in that order, more than 1000 nM and 100 to 1000 nM.
The corresponding values for `CCC(CC(=O)O)c1cccc(OCc2ccc(-c3cc(OC)ccc3F)c(C(OC)C(C)(C)C)c2)c1F` (single isomer, unassigned) [Example 77.4] are less than 10 nM and 100 to 1000 nM.
As to `CCC(CC(=O)O)c1cccc(OCc2ccc(-c3cccc(OC)c3)c(C3CCCC3(C)C)c2)c1` (single isomer, unassigned) [Example 78.6], the EC50 in assay [1] is less than 10 nM; in assay [2] it was 10 to 100 nM.
Regarding `COc1cc(-c2ccc(COc3cccc(C(CC(=O)O)C4CC4)c3)cc2C2=CCCCC2(C)C)c(F)cn1` (single isomer, unassigned) [Example 66.34, (3S)-3-Cyclopropyl-3-(3-(((3-(6,6-dimethyl-1-cyclohexen-1-yl)-4-(5-fluoro-2-(methyloxy)-4-pyridinyl)phenyl)methyl)oxy)phenyl)propanoic acid or (3S)-3-Cyclopropyl-3-(3-(((3-(6,6-dimethyl-1-cyclohexen-1-yl)-4-(5-fluoro-2-(methyloxy)-4-pyridinyl)phenyl)methyl)oxy)phenyl)propanoic acid], the EC50 in assay [1] and in assay [2] was 10 to 100 nM in each case.
Take `CCC(CC(=O)O)c1cccc(OCc2cc(C3CCCC3(C)C)c(-c3cc(OC)ccc3F)cc2F)c1` (single isomer, unassigned) [Example 78.10]: the values for the half-maximal effective concentration (EC50) in assay [1] and in assay [2] were less than 10 nM and 100 to 1000 nM, respectively.
For the molecule `COc1ccc(F)c(-c2ccc(COc3cccc(C(C)CC(=O)O)c3)cc2C2=CCCCCC2)c1` (single isomer, unassigned) [Example 64.12, (3R)-3-(3-(((2-(1-Cyclohepten-1-yl)-2′-fluoro-5′-(methyloxy)-1,1′-biphenyl-4-yl)methyl)oxy)phenyl)butanoic acid or (3S)-3-(3-(((2-(1-cyclohepten-1-yl)-2′-fluoro-5′-(methyloxy)-1,1′-biphenyl-4-yl)methyl)oxy)phenyl)butanoic acid], the concentration for a half-maximal effect (EC50) in assay [1] is 10 to 100 nM; in assay [2], 100 to 1000 nM.
`CC[C@H](CC(=O)O)c1cccc(OCc2ccc(-c3cc(Cl)ccc3F)c(C3=CCCC3(C)C)c2)c1` (single isomer, unassigned) [Example 78.9, (3R)-3-(3-(((5′-Chloro-2-(5,5-dimethyl-cyclopenten-1-yl)-2′-fluoro-1,1′-biphenyl-4-yl)methyl)oxy)phenyl)pentanoic acid or (3S)-3-(3-(((5′-chloro-2-(5,5-dimethyl-1-cyclopenten-1-yl)-2′-fluoro-1,1′-biphenyl-4-yl)methyl)oxy)phenyl)pentanoic acid]: the figures for the EC50 in assay [1] and in assay [2] were 10 to 100 nM and 100 to 1000 nM, respectively.
The like results for `COc1cccc(-c2ccc(COc3cccc(C(CC(=O)O)C4CCC4)c3)cc2C2CCCCCC2)c1` (single isomer, unassigned) [Example 79.8, (3S)-3-(3-(((2-Cycloheptyl-3′-(methyloxy)-1,1′-biphenyl-4-yl)methyl)oxy)phenyl)-3-cyclobutylpropanoic acid or (3R)-3-(3-(((2-cycloheptyl-3′-(methyloxy)-1,1′-biphenyl-4-yl)methyl)oxy)phenyl)-3-cyclobutylpropanoic acid] were, in that order, 10 to 100 nM and 100 to 1000 nM.
The corresponding values for `COc1ccc(F)c(-c2ccc(COc3cccc([C@@H](CC(=O)O)C4CC4)c3)cc2CN2[C@H](C)CCC[C@H]2C)c1` (single isomer, unassigned) [Example 66.69] are 10 to 100 nM and 100 to 1000 nM.
Regarding `COc1cccc(-c2ccc(COc3cccc(C(CC(=O)O)C4CC4)c3)cc2C2CCCC2(C)C)c1` (centres unmarked) [Example 66.8], the EC50 in assay [1] is less than 10 nM; in assay [2], 10 to 100 nM.
As for `COc1ccc(F)c(-c2cc(F)c(COc3cccc(C(CC(=O)O)CC4CC4)c3)cc2C2=CCCC2(C)C)c1` (single isomer, unassigned) [Example 69.30, (3R)-4-cyclopropyl-3-(3-(((2-(5,5-dimethyl-1-cyclopenten-1-yl)-2′,5-difluoro-5′-(methyloxy)-1,1′-biphenyl-4-yl)methyl)oxy)phenyl)butanoic acid or (3S)-4-cyclopropyl-3-(3-(((2-(5,5-dimethyl-1-cyclopenten-1-yl)-2′,5-difluoro-5′-(methyloxy)-1,1′-biphenyl-4-yl)methyl)oxy)phenyl)butanoic acid], the EC50 is less than 10 nM in assay [1] and 100 to 1000 nM in assay [2].
Regarding `COc1ccc(F)c(-c2ccc(COc3cccc(C(C)CC(=O)O)c3)cc2C2(C)CC2)c1` (single isomer, unassigned) [Example 64.18, (3R)-3-(3-(((2′-Fluoro-2-(1-methylcyclopropyl)-5′-(methyloxy)-1,1′-biphenyl-4-yl)methyl)oxy)phenyl)butanoic acid or (3S)-3-(3-(((2′-fluoro-2-(1-methylcyclopropyl)-5′-(methyloxy)-1,1′-biphenyl-4-yl)methyl)oxy)phenyl)butanoic acid], the EC50 in assay [1] and in assay [2] was 100 to 1000 nM in each case.
For `COc1ccc(F)c(-c2ccc(COc3cccc(C(CC(=O)O)C4CC4)c3)cc2C2=CCCCC2(C)C)c1` (single isomer, unassigned) [Example 66.10, (3S)-3-Cyclopropyl-3-(3-(((2-(6,6-dimethyl-1-cyclohexen-1-yl)-2′-fluoro-5′-(methyloxy)-1,1′-biphenyl-4-yl)methyl)oxy)phenyl)propanoic acid or (3R)-3-cyclopropyl-3-(3-(((2-(6,6-dimethyl-1-cyclohexen-1-yl)-2′-fluoro-5′-(methyloxy)-1,1′-biphenyl-4-yl)methyl)oxy)phenyl)propanoic acid], the concentration giving a half-maximal response (EC50) in assay [1] is less than 10 nM; in assay [2], 100 to 1000 nM.
Turning to `C=CC[C@H](CC(=O)O)c1cccc(OCc2ccc(-c3cc(OC)ccc3F)c(C(C)(C)C)c2)c1` (single isomer, unassigned) [Example 51, (3R)-3-(3-(((2-(1,1-Dimethylethyl)-2′-fluoro-5′-(methyloxy)-1,1′-biphenyl-4-yl)methyl)oxy)phenyl)-5-hexenoic acid or (3S)-3-(3-(((2-(1,1-dimethylethyl)-2′-fluoro-5′-(methyloxy)-1,1′-biphenyl-4-yl)methyl)oxy)phenyl)-5-hexenoic acid], the EC50 in assay [1] and in assay [2] was 100 to 1000 nM in each case.
Consider `CCC(CC(=O)O)c1cccc(OCc2ccc(-c3cc(OC)ccc3F)c(C3CCCCC3(C)C)c2)c1F` (single isomer, unassigned) [Example 77.8], for which the values for the concentration giving a half-maximal response (EC50) in assay [1] and in assay [2] were less than 10 nM and 100 to 1000 nM, respectively.

As usually defined, the EC50 is the concentration at which the effect is half-maximal.
